Assays:
PC12 cells [1] = assay: Cell growth inhibition in PC12 cells (cell counts; dose response and time course); format: cell-based, rat; conditions: dose response
Description: The biological effects of the 3-fluoro and 1-fluoro myo-inositol analogs were tested in PC12 cells, a cell line derived from a rat pheochromocytoma, which has been widely used to study the effects of various growth factors and differentiation promoters as further described by Green, L. A., et al., Adv. Cell Neurobiol., 3, 373-414, (1982), the disclosure of which is incorporated herein by reference.
PC12 cells were seeded at a density of 3.3×10^5 cells/cm^2 in plastic culture dishes and grown at 37° C. in a humidified atmosphere of 95% air/5% CO2. The basal medium used in these experiments was RPMI-1640 medium (Gibco). In some experiments a specially formulated inositol-free RPMI-1640 medium (Gibco) was used. This basal medium was supplemented with either normal or extensively dialyzed horse serum (10%) and fetal calf serum (5%) (Gibco). […]
A dose-response study was performed by growing cells in the presence of certain concentrations of the 3-fluoro and the 1-fluoro-myo-inositol analogs. At the end of five days, the cells were counted by the means described hereinabove.
The time course effect on cell replication was then examined, using the concentration of 1-fluoro and 3-fluoro myo-inositol analogs determined to have maximal effects in the dose response study of Table 1. […]

PC12 cells [2] = assay: Effects of fluoroinositol treatment on cell size (protein per cell, Lowry); format: cell-based, rat
Text: As cells grow in culture, the size of an individual cell varies in a fairly predictable way. The size of a cell can be expressed as the amount of protein present per cell. […] Immediately after mitosis, the cell size drops considerably, frequently to levels approximately half of the pre-mitotic level.
By investigating the size of a cell, it is possible to determine at which point within the cell cycle inhibitors of cell replication are exerting their effects. Accordingly, we investigated the effect of the 1- and 3-fluoro-myo-inositol analogs on the size of cells chronically treated with such analogs.
Cells were grown and treated with 1- and 3-fluoro-myo-inositol analogs as described in Example XIII. On the days indicated, cells were gently harvested without disruption, and the number of cells counted in triplicate in a cell counting chamber. Following determination of the number of cells per sample, the remainder of the cells were pelleted in a microcentrifuge as described hereinabove, and the protein in the sample was determined by the method of Lowry. Thus, it was possible to derive from these two data sets the amount of protein per cell, which is expressed as nanograms of protein per cell, as indicated in Table 3: […]

myo-inositol transporter = molecular target: T1, myo-inositol transporter (Rattus norvegicus, UniProt Q80WA5); assay: [3H]myo-inositol uptake by the myo-inositol transporter in PC12 cells; format: cell-based; conditions: for Maximal Transport Rate Vmax: in presence of fixed 1 mM analog
T1 construct: PC12 cells were gently detached and maintained in a suspension culture; endogenous in cells; host or cells: PC12
T1 sequence (Q80WA5 1-718): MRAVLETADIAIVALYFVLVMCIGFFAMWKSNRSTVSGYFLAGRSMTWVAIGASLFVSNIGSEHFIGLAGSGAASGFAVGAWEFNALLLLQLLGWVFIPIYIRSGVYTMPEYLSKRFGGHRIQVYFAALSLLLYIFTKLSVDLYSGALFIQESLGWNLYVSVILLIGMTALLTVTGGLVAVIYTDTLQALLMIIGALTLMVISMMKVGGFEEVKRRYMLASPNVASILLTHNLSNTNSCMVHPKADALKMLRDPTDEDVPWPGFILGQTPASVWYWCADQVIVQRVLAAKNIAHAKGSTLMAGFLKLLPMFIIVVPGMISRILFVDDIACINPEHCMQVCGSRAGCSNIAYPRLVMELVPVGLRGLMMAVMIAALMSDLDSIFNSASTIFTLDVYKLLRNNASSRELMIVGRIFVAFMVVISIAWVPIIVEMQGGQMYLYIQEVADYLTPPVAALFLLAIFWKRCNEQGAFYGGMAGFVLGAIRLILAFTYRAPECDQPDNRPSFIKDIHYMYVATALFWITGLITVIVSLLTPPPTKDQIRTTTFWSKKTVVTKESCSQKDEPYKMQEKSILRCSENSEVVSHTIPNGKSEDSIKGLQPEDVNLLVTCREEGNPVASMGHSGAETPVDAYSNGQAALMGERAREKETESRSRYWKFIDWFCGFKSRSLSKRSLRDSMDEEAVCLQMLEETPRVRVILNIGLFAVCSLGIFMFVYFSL
Description: To determine if the effect of the fluoro-myo-inositol analogs might be mediated by the blockade of the myo-inositol transporter, which is responsible for uptake and accumulation of myo-inositol into the cell, the ability of these two compounds to block [^3 H]myo-inositol transport was studied directly.
The uptake of [^3 H]myo-inositol by the myo-inositol transporter was determined as follows: PC12 cells were gently detached and maintained in a suspension culture in RPMI medium (both myo-inositol and serum free) at 37° C. [^3 H]myo-inositol was added to this culture at a concentration of 1μCi/ml. Aliquots of this suspension were removed at the indicated time, diluted in 10 volumes of ice-cold PBS containing 10 mM unlabelled myo-inositol to stop the uptake process, centrifuged at 4° C. for 20 minutes at 50xg. The cell pellet, which contained the transported [^3 H]myo-inositol, was dissolved in dilute NaOH and the radioactivity quantified by liquid scintillation counting.
The […] and Vmax of myoinositol were determined from LineweaverBurke plots
of the uptake of [^3 H]myoinositol (25 nM) in the presence of
increasing concentrations of unlabeled myoinositol in PC12 cells. The Ki
of the two fluoromyo-inositol analogs was determined by conducting the
uptake studies in the presence of a fixed concentration (1 mM) of each

PC12 cells [3] = assay: Uptake and incorporation of [3H]myo-inositol into PC12 cells following treatment with inositol analogs; format: cell-based, rat
Description: Since myo-inositol must be incorporated into the cellular plasma membranes in order for it to serve its role as a second messenger, we therefore verified the ability of the 1- and 3-fluoro-myo-inositol analogs to perturb the incorporation of myo-inositol into cellular plasma membranes by the enzyme CDP-diacylglycerol-inositol phosphatidyltransferase (phosphatidylinositol synthetase).
These tests were conducted by treating cells for either 1, 3, 5, or 7 days with the myo-inositol analogs, followed by a brief exposure to radiolabeled myo-inositol ([^3 H]myo-inositol). The extent of incorporation of tritiated myo-inositol would, therefore, reflect the extent to which phosphatidylinositol and its phosphorylated analogs are deficient in the cellular plasma membranes.
Cells were grown as described hereinabove. Twenty-four hours after plating, the medium was changed and cells were exposed to either inositol free medium (Control 2) or medium containing either the 1- or the 3-fluoro-myo-inositol analog. […] Samples from both the pellet and supernatant were then obtained and the levels of radioactivity in each were determined. Radioactivity in the supernatant corresponded to the amount of free [^3 H]myo-inositol in the cytoplasm of the cell, whereas the radioactivity present in the TCA-precipated pellet represented [^3 H]myo-inositol incorporated into the cellular plasma membranes. […]

| Maximal Transport Rate Vmax (myo-inositol transporter) | Affinity Constant K (Ka) (myo-inositol transporter; Lineweaver-Burke plots, [3H]myo-inositol 25 nM with increasing unlabeled myo-inositol) | Structure (SMILES) | potency in inhibiting cell replication relative to the 3-fluoro-myo-inositol analog (PC12 cells [1]) | potency in inhibiting cell replication relative to the 3-fluoro-myo-inositol analog (PC12 cells [1]; listed as I-fluoro-myo-inositol analog) | plateau of protein per cell relative to protein levels on day one (PC12 cells [2]) | increase in the number of unoccupied sites for myo-inositol in the cellular plasma membranes (PC12 cells [3]; after several days of exposure) | level of radioactively-labeled myo-inositol incorporated into the cellular plasma membranes (PC12 cells [3]; PC12 cells, result in words) |
| --- | --- | --- | --- | --- | --- | --- | --- |
| 2.27 nmol/mg/h |  | O[C@@H]1[C@@H](O)[C@@H](O)[C@@H](F)[C@H](O)[C@H]1O [1-deoxy-1-fluoroinositol, 1-deoxy-1-fluoro-myo-inositol] | about five-fold more potent | 5 fold | approximately twice | 10 fold |  |
| 2.27 nmol/mg/h |  | O[C@@H]1[C@@H](O)[C@H](O)[C@@H](F)[C@@H](O)[C@H]1O [3-deoxy-3-fluoroinositol, 3-deoxy-3-fluoro-myo-inositol] |  |  |  |  | quite low |
|  | 45 µM | O[C@H]1[C@H](O)[C@@H](O)[C@H](O)[C@@H](O)[C@H]1O [Myo-inositol, myo-inositol] |  |  |  |  |  |

Reference: US5053399A, “Myo-inositol analogs and methods for their use” (University of Pittsburgh, priority 1990, dated 1991)
